Source: paper PMC6204601, “In Vivo Selectivity and Localization of Reactive Oxygen Species (ROS) Induction by Osmium Anticancer Complexes That Circumvent Platinum Resistance” (Journal of Medicinal Chemistry, 2018)

Tests used:
[1] = test system: A2780 ovarian carcinoma cells; test: Sulforhodamine B antiproliferative assay, A2780; type: cell-based, human; conditions: 24 h drug exposure + 72 h recovery in drug-free medium, SRB; read-out: Antiproliferative activity (IC50) A2780 Ovarian
[2] = test system: HOF human ovarian fibroblasts; test: Sulforhodamine B antiproliferative assay, HOF; type: cell-based; conditions: 24 h drug exposure + 72 h recovery, SRB; non-cancer fibroblasts
Experimental: (§1) In vitro biological studies
(§2) Sulforhodamine B cell viability colorimetric assay.
(§3) by ICP-OES analysis for metal content).
(§4) 72 h recovery time (310 K).
(§5) using slowly-running tap water and air dried.
(§6) Data were processed using Microsoft Excel

[3] = test system: A549 lung carcinoma cells; test: Sulforhodamine B antiproliferative assay, A549; type: cell-based, human; conditions: 24 h drug exposure + 72 h recovery, SRB
[4] = test system: MRC5 human lung fibroblasts; test: Sulforhodamine B antiproliferative assay, MRC5; type: cell-based; conditions: 24 h drug exposure + 72 h recovery, SRB; non-cancer fibroblasts
Experimental: as §1, §2, §3, §4, §5, §6
IC50 values (concentrations at which […]
After this time, cells were […]

[5] = test system: HCT116 colorectal carcinoma cells; test: Sulforhodamine B antiproliferative assay, HCT116; type: cell-based, human; conditions: 24 h drug exposure + 72 h recovery, SRB; read-out: Antiproliferative activity (IC50) HCT116 Colon
[6] = test system: A2780Cis cisplatin-resistant ovarian carcinoma cells; test: Sulforhodamine B antiproliferative assay, A2780Cis; type: cell-based, human; conditions: 24 h drug exposure + 72 h recovery, SRB
[7] = test system: HCT116Ox oxaliplatin-resistant colorectal carcinoma cells; test: Sulforhodamine B antiproliferative assay, HCT116Ox; type: cell-based, human; conditions: 24 h drug exposure + 72 h recovery, SRB, read-out: Antiproliferative activity (IC50) HCT116Ox Colon
[8] = test system: HCT116p21-/- P21-knockout colorectal carcinoma cells; test: Sulforhodamine B antiproliferative assay, HCT116p21-/-; type: cell-based, human; conditions: 24 h drug exposure + 72 h recovery, SRB, read-out: Antiproliferative activity (IC50) HCT116p21-/- Colon
[9] = test system: HCT116p53-/- P53-knockout colorectal carcinoma cells; test: Sulforhodamine B antiproliferative assay, HCT116p53-/-; type: cell-based, human; conditions: 24 h drug exposure + 72 h recovery, SRB, read-out: Antiproliferative activity (IC50) HCT116p53-/- Colon
[10] = test system: AB wild-type zebrafish embryos; type: in vivo; conditions: 96 h exposure, read-out: LC50 (Danio rerio) AB-WT
[11] = test system: Singapore wild-type zebrafish embryos; type: in vivo, Danio rerio; conditions: for LC50: zebrafish embryos, 96 h exposure, read-out: LC50 (Danio rerio) SG-WT
Experimental: (§7) In vivo biological studies […]
(§8) wild-type zebrafish (SGWT) embryos (< 5 dpf). All animals were maintained in accordance with ASPA […]
(§9) maintained. Light cycle: 14 hours day, 10 hours night.
1 L breeding tank. Pairs were set up the previous evening. Males and females were separated by a divider. The divider was removed around 9am (dawn). Embryos were collected and placed into petri dishes with fresh egg water. […]

[12] = test system: Tubingen wild-type zebrafish embryos; test: Zebrafish embryo toxicity (FET) test, TU-WT; type: in vivo; conditions: 96 h exposure, read-out: LC50 (Danio rerio) TU-WT
[13] = test system: Singapore wild-type zebrafish; conditions: 1 or 2× LC50, 96 h, green ROS probe, confocal
Experimental: as §7, §8, §9
1 L breeding tank. Pairs were set up the previous evening. Males and females were separated by a divider. The divider was removed around 9am (dawn). Embryos were collected and placed into petri dishes with fresh egg water.
Confocal microscopy (zebrafish). […]
or positive control samples.

[14] = CV vs Ag/AgCl, 100 mV/s, 10^–3 M, CH3CN; electrochemically reversible
[15] = test system: HCT116 human colorectal cancer cells xenografts; conditions: cited from earlier work
[16] = test system: HOF human ovarian fibroblasts; test: ROS/superoxide detection by flow cytometry, HOF; conditions: 24 h, 1.0 × IC50 (pyocyanin positive control 0.1 mM); for % Population Q2 FL1-H+ / FL2-H+: ROS and superoxide; for % Population Q1 FL1-H- / FL2-H+: superoxide only; for % Population Q3 FL1-H+ / FL2-H-: total ROS only
Experimental: (§10) Reactive oxygen species (ROS) determination using flow cytometry. The generation of ROS and
(§11) superoxide in A2780 ovarian cancer cells was evaluated using the ROS/Superoxide detection kit (Enzo
(§12) Life Sciences) following the manufacturer’s protocol.
(§13) cells per well, and incubated for 24 h (310 K). After this time, cells were exposed to equipotent
The pellets were re-suspended in 500
(§14) μL PBS and stained with green fluorescent reagent for total ROS reading in the FL1-green channel (2
(§15) μL) and orange fluorescent reagent for superoxide reading in the FL2-red channel (2 μL). Positive
(§16) control samples were treated with pyocyanin (5 μL, 30 min). Single stained positive control samples
(§17) were used for compensation purposes. Data were obtained using a Becton Dickson FACScan Flow
(§18) Cytometer and processed using FlowJo V10 for Windows.

[17] = test system: A2780 cancer cells; test: ROS/superoxide detection by flow cytometry, A2780; conditions: A2780, 24 h, 1.0 × IC50 (pyocyanin positive control 0.1 mM); for % Population Q1 FL1-H- / FL2-H+: superoxide only; for % Population Q3 FL1-H+ / FL2-H-: total ROS only
Experimental: as §10, §11, §12, §13
The pellets were re-suspended in 500
as §14, §15, §16, §17, §18

[18] = test system: A2780 cancer cells; conditions: A2780, 20 μM verapamil, normalised Os
Experimental: as §1
Cell culture. All cell lines were obtained from the European Collection of Cell Cultures (ECACC). […]
supplemented with 10% foetal calf serum, 1% 2 mM glutamine and 1% penicillin/streptomycin.
HCT116, HCT1116Ox, HCT116p21-/- and HCT116p53-/-, all of colon origin, were grown in McCoy’s Modified 5A medium supplemented with 10% foetal calf serum, 1% 2 mM glutamine and 1% penicillin/streptomycin. HOF normal ovarian fibroblasts were grown in fibroblast growth medium supplemented with 2% foetal calf serum, 1% 2 mM penicillin/streptomycin and 1% fibroblast growth factor. Cells were grown as adherent monolayers in 75 cm2 culture flasks at 310 K in a 5% CO2 humidified atmosphere and passaged at regular intervals using trypsin-EDTA.
After this time, the cells were washed with PBS and supplied
Sulforhodamine B cell viability colorimetric assay. Briefly, 5000 cells were seeded in a 96-well plate […]
mM) were prepared in medium with 5% v/v DMSO (concentration was determined after drug exposure by ICP-OES analysis for metal content). […] Cell viability was determined using the Sulforhodamine B assay.1 Cells […]
50% cell death occurred) are reported as averages with calculated standard deviations. Experiments were performed in triplicate as part as two independent experiments, and statistics calculated using two-tailed t-test assuming unequal variances (Welch’s t-test). […]

Row | Compound | IC50 [1] | IC50 [2] | IC50 [3] | IC50 [4] | IC50 [5] | IC50 [6] | IC50 [7] | IC50 [8] | IC50 [9] | LC50 [10] | LC50 [11] | LC50 [12] | ROS generated in vivo in zebrafish [13] | % Population Q4 FL1-H- / FL2-H- [16] | % Population Q2 FL1-H+ / FL2-H+ [16] | % Population Q1 FL1-H- / FL2-H+ [16] | % Population Q3 FL1-H+ / FL2-H- [16] | % Population Q4 FL1-H- / FL2-H- [17] | % Population Q1 FL1-H- / FL2-H+ [17] | % Population Q3 FL1-H+ / FL2-H- [17] | other results
1 | CN(C)c1ccc(N=Nc2ccccn2)cc1.Cc1ccc(C(C)C)cc1.F[P-](F)(F)(F)(F)F.[I][Os+] [Complex 10, [Os(Azpy-NMe2)(p-cymene)I]PF6] | 0.15 ± 0.01 µM | 2.32 ± 0.01 µM | 1.1 ± 0.2 µM | 4.5 ± 0.3 µM | 0.26 ± 0.03 µM | 0.15 ± 0.01 µM | 0.96 ± 0.05 µM | 1.64 ± 0.08 µM | 1.1 ± 0.07 µM | 16.8 ± 0.8 µM | 24.3 ± 0.4 µM | 17 ± 1 µM | elevated levels of ROS | 3.9 ± 0.3% | 61 ± 1% | 11.3 ± 0.5% | 24.1 ± 0.9% | 0.41 ± 0.02% | 1.65 ± 0.09% | 2.47 ± 0.08% | Fold less toxic toward zebrafish embryos compared to cisplatin ([11]; LC50 ratio vs cisplatin): 40 ×; First reduction step potential [14]: ca. −0.4 V; Effect on growth of xenografts ([15]; HCT116 xenografts in mice): delay the growth of xenografts; Toxic side effects in xenograft-bearing mice ([15]; xenograft-bearing mice): few toxic side effects
2 | Cc1ccc(C(C)C)cc1.Cc1ccc(S(=O)(=O)[N-]C(c2ccccc2)C([NH-])c2ccccc2)cc1.[Os+2] (stereo not shown) [Complex 1, [Os(p-cymene)(Ts-DPEN)]] | 15.5 ± 0.5 µM | 29.9 ± 0.5 µM | 21.1 ± 0.3 µM | 21.4 ± 0.7 µM | 37 ± 1 µM | 21.6 ± 0.2 µM | 51 ± 2 µM | 106 ± 2 µM | 62 ± 3 µM | 4.3 ± 0.7 µM | 2.4 ± 0.4 µM | 2.6 ± 0.3 µM | elevated levels of ROS | 7.3 ± 0.5% | 38 ± 1% | 9.1 ± 0.8% | 45.4 ± 0.7% | 2.4 ± 0.9% | 1.2 ± 0.2% | 0.3 ± 0.1% | % accumulation (recovery time) 48 h [18]: 30 ± 2%; % accumulation (recovery time) 72 h [18]: 17.8 ± 0.3%
